The test concerns E0771 and B16F10 1° and 2° tumors. The experiment in a line: Abscopal effect studies. The class given is in vivo, C57BL/6 mice. The protocol: Abscopal effect studies. For the E0771 model, 0.5×10^6 cells were injected into the 4th mammary fat pad of the right ventral side (1° tumor) and 0.4×10^6 cells were injected into the 4th mammary fat pad of the left ventral side (2° tumor) of C57BL/6 mice. Once the 1° tumor reached ˜100 mm^3, ELANE or PMSF-ELANE (11.6 μg/100 μL) were injected IT into the 1° tumor once/day for 5 days, and 1° and 2° tumor volumes were measured by calipers. For the B16F10 model, 0.5×10^6 cells were injected into the flank (1° tumor). 7 days later, 0.2×10^6 cells were injected into the lateral tail vein to create 2° lung metastases. Once the 1° tumor reached ˜100 mm^3, ELANE or PMSF-ELANE (11.6 μg/100 μL) were injected IT into the 1° tumor once/day for 5 days, and the 1° tumor volume was measured by calipers. Lungs were excised 10 days after the final ELANE treatment, and 2° lung metastases were counted. For CD8^+ T cell depletion, anti-mouse CD8α (clone 2.43, Bio X Cells) or rat IgG2b (isotype control, Bio X Cells) were injected IV (200 μg/injection) 3 days before the first ELANE treatment, and once/week after the last ELANE treatment. CD8^+ T cell depletion was confirmed by flow cytometry.
For the ‘spillover control’, 0.5×10^6 E0771 cells were injected into the 4th mammary fat pad of the left ventral side (2° tumor). ELANE or PMSF-ELANE (11.6 μg/100 μL) were injected into the tumor-free 4th mammary fat pad of the right ventral side pad once/day for 5 days, and 2° tumor volume was measured by calipers.
For the ‘specificity control’, 0.5×10^6 E0771 cells were injected into the into the 4th mammary fat pad of the right ventral side (1° tumor) and 7 days later, 1×10^6B16F10 cells were injected into the flank (2° tumor). Once the 1° tumor reached ˜100 mm^3, ELANE or PMSF-ELANE (11.6 μg/100 μL) were injected IT into the 1° tumor once/day for 5 days, and 1° and 2° tumor volumes were measured by calipers.

As to “ELANE: neutrophil elastase, a serine protease released by human PMNs”, the “number of 2° lung metastases” value (1° B16F10 tumor treated, 12 μg/day for 5 days) is listed as “lowered the number of lung metastases”. Besides, the “tumorigenesis in 2° B16F10 tumor (specificity control)” value (1° E0771 tumor treated) was “did not impact tumorigenesis in a 2° B16F10 tumor”. Where the note is “1° tumor treated, 12 μg/day for 5 days”, the “tumorigenesis at 1° and 2° E0771 tumors” value is on record as “attenuated tumorigenesis at both sites”. Besides, the “abscopal effect after depleting CD8+ T cells” value (both models) is given as “attenuated ELANE's abscopal effect in both models”. Further, the “tumorigenesis after injection into contralateral site” value (opposite the tumor, tumor-bearing mice) is recorded as “failed to attenuate tumorigenesis”.

Values taken from patent US12611443B2, “Methods and compositions related to therapeutic peptides for cancer therapy” (THE UNIVERSITY OF CHICAGO, priority 2018, dated 2026).
